Data as given in PubChem BioAssay AID1845217 (Molecular Pharmacology Branch, DTP, NCI, 2023).

Tested on: VA-ES-BJ tumor spheroid viability
Assay: Anticancer human tumor VA-ES-BJ cell line growth inhibition;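 note: spheroids exposed to compounds for seven days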;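 for viability, T/C: percent of DMSO vehicle control viability so 100% = untreated growth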
Conditions: spheroids with HUVEC and MSC; for IC50: curve of first compound; for viability, T/C: stronger effect = lower value
Summary of the method: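 Complex spheroids of malignant cells with endothelial cells and mesenchymal stem cells; agents alone or combined, from near clinical Cmax (or 10 microM if unknown) down in half-log steps, 0.25% DMSO final.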

[1] = second compound 30 pM, first compound 0.00949 µM
[2] = second compound 30 pM, first compound 0.03 µM
[3] = second compound 30 pM, first compound 0.0949 µM
[4] = second compound 30 pM, first compound 0.3 µM
[5] = second compound 30 pM, first compound 0.949 µM
[6] = second compound 30 pM, first compound 3 µM
[7] = second compound 94.9 pM, first compound 0.00949 µM
[8] = second compound 94.9 pM, first compound 0.03 µM
[9] = second compound 94.9 pM, first compound 0.0949 µM
[10] = second compound 94.9 pM, first compound 0.3 µM
[11] = second compound 94.9 pM, first compound 0.949 µM
[12] = second compound 94.9 pM, first compound 3 µM
[13] = second compound 0.0003 µM, first compound 0.00949 µM
[14] = second compound 0.0003 µM, first compound 0.03 µM
[15] = second compound 0.0003 µM, first compound 0.0949 µM
[16] = second compound 0.0003 µM, first compound 0.3 µM
[17] = second compound 0.0003 µM, first compound 0.949 µM
[18] = second compound 0.0003 µM, first compound 3 µM
[19] = second compound 0.000949 µM, first compound 0.00949 µM
[20] = second compound 0.000949 µM, first compound 0.03 µM
[21] = second compound 0.000949 µM, first compound 0.0949 µM
[22] = second compound 0.000949 µM, first compound 0.3 µM
[23] = second compound 0.000949 µM, first compound 0.949 µM
[24] = second compound 0.000949 µM, first compound 3 µM
[25] = second compound 0.003 µM, first compound 0.00949 µM
[26] = second compound 0.003 µM, first compound 0.03 µM
[27] = second compound 0.003 µM, first compound 0.0949 µM
[28] = second compound 0.003 µM, first compound 0.3 µM
[29] = second compound 0.003 µM, first compound 0.949 µM
[30] = second compound 0.003 µM, first compound 3 µM

`Cn1ncnc1[C@H]1c2n[nH]c(=O)c3cc(F)cc(c23)N[C@@H]1c1ccc(F)cc1` + COc1cc2c(cc1O)CCNC21CSC2c3c(OC(C)=O)c(C)c4c(c3C(COC1=O)N1C(O)C3Cc5cc(C)c(OC)c(O)c5C(C21)N3C)OCO4 was tested. Which IC50 (second compound 30 pM) did it give?
The IC50 was 329 nM.

What about the IC50 (second compound 94.9 pM) of the same compound?
Its IC50 is 155 nM.

What about the IC50 (second compound 0.0003 µM) of the same compound?
The IC50 was under 9.49 nM.

What about the IC50 (second compound 0.000949 µM) of the same compound?
The IC50 was under 9.49 nM.

And the IC50 (second compound 0.003 µM)?
The IC50 was under 9.49 nM.

What about the viability, T/C [1] of the same compound?
Its viability, T/C is 92.8%.

And the viability, T/C [2]?
The viability, T/C was 79.3%.

What about the viability, T/C [3] of the same compound?
Its viability, T/C is 67.9%.

What about the viability, T/C [4] of the same compound?
Its viability, T/C is 54.9%.

And the viability, T/C [5]?
The viability, T/C was 29.8%.

And the viability, T/C [6]?
The viability, T/C was 6.51%.

And the viability, T/C [7]?
Its viability, T/C is 67.8%.

And the viability, T/C [8]?
The viability, T/C was 70.4%.

And the viability, T/C [9]?
Its viability, T/C is 52.8%.

What about the viability, T/C [10] of the same compound?
The viability, T/C was 42.1%.

What about the viability, T/C [11] of the same compound?
Its viability, T/C is 24%.

What about the viability, T/C [12] of the same compound?
The viability, T/C was 6.18%.

What about the viability, T/C [13] of the same compound?
Its viability, T/C is 33.9%.

What about the viability, T/C [14] of the same compound?
The viability, T/C was 29.3%.

And the viability, T/C [15]?
Its viability, T/C is 23.9%.

And the viability, T/C [16]?
Its viability, T/C is 19.7%.

And the viability, T/C [17]?
The viability, T/C was 8.26%.

And the viability, T/C [18]?
Its viability, T/C is 4.82%.

What about the viability, T/C [19] of the same compound?
Its viability, T/C is 3.64%.

What about the viability, T/C [20] of the same compound?
Its viability, T/C is 3.04%.

What about the viability, T/C [21] of the same compound?
Its viability, T/C is 2.49%.

What about the viability, T/C [22] of the same compound?
Its viability, T/C is 3.23%.

And the viability, T/C [23]?
Its viability, T/C is 1.4%.

And the viability, T/C [24]?
Its viability, T/C is 0.45%.

What about the viability, T/C [25] of the same compound?
The viability, T/C was 1.48%.

What about the viability, T/C [26] of the same compound?
The viability, T/C was 1.15%.

And the viability, T/C [27]?
Its viability, T/C is 1.53%.

What about the viability, T/C [28] of the same compound?
Its viability, T/C is 2.52%.

And the viability, T/C [29]?
Its viability, T/C is 1.19%.

What about the viability, T/C [30] of the same compound?
The viability, T/C was 2.91%.

`CNCc1ccc(-c2cc(-c3nc(-c4ccc(S(=O)(=O)C(C)C)cc4)cnc3N)on2)cc1` + COc1cc2c(cc1O)CCNC21CSC2c3c(OC(C)=O)c(C)c4c(c3C(COC1=O)N1C(O)C3Cc5cc(C)c(OC)c(O)c5C(C21)N3C)OCO4 was tested. Which IC50 (second compound 30 pM) did it give?
Its IC50 is 260 nM.

And the IC50 (second compound 94.9 pM)?
Its IC50 is 122 nM.

What about the IC50 (second compound 0.0003 µM) of the same compound?
Its IC50 is under 9.49 nM.

And the IC50 (second compound 0.000949 µM)?
The IC50 was under 9.49 nM.

And the IC50 (second compound 0.003 µM)?
Its IC50 is under 9.49 nM.

And the viability, T/C [1]?
Its viability, T/C is 91.9%.

And the viability, T/C [2]?
Its viability, T/C is 90%.

What about the viability, T/C [3] of the same compound?
Its viability, T/C is 82.8%.

And the viability, T/C [4]?
Its viability, T/C is 45.7%.

What about the viability, T/C [5] of the same compound?
The viability, T/C was 7.78%.

And the viability, T/C [6]?
Its viability, T/C is 1.72%.

And the viability, T/C [7]?
The viability, T/C was 85.9%.

And the viability, T/C [8]?
Its viability, T/C is 79.8%.

What about the viability, T/C [9] of the same compound?
Its viability, T/C is 51.1%.

And the viability, T/C [10]?
Its viability, T/C is 34.1%.

What about the viability, T/C [11] of the same compound?
Its viability, T/C is 6.4%.

What about the viability, T/C [12] of the same compound?
The viability, T/C was 1.3%.

And the viability, T/C [13]?
The viability, T/C was 47.9%.

What about the viability, T/C [14] of the same compound?
The viability, T/C was 44.7%.

What about the viability, T/C [15] of the same compound?
Its viability, T/C is 36.5%.

And the viability, T/C [16]?
Its viability, T/C is 23.9%.

And the viability, T/C [17]?
The viability, T/C was 5.48%.

And the viability, T/C [18]?
The viability, T/C was 1.1%.

And the viability, T/C [19]?
Its viability, T/C is 3.65%.

And the viability, T/C [20]?
Its viability, T/C is 3.36%.

And the viability, T/C [21]?
The viability, T/C was 4.65%.

What about the viability, T/C [22] of the same compound?
Its viability, T/C is 1.83%.

And the viability, T/C [23]?
Its viability, T/C is 0.95%.

And the viability, T/C [24]?
Its viability, T/C is 1.89%.

And the viability, T/C [25]?
Its viability, T/C is 1.45%.

And the viability, T/C [26]?
The viability, T/C was 1.2%.

And the viability, T/C [27]?
Its viability, T/C is 0.99%.

And the viability, T/C [28]?
The viability, T/C was 1.37%.

What about the viability, T/C [29] of the same compound?
The viability, T/C was 1.15%.

And the viability, T/C [30]?
The viability, T/C was 0.13%.

For `Cc1cc(C)c(CNC(=O)c2cc(-c3ccc(CN4CCOCC4)cc3)cc3c2cnn3C2CCCC2)c(=O)[nH]1` + COc1cc2c(cc1O)CCNC21CSC2c3c(OC(C)=O)c(C)c4c(c3C(COC1=O)N1C(O)C3Cc5cc(C)c(OC)c(O)c5C(C21)N3C)OCO4, which IC50 (second compound 30 pM) is on record?
Its IC50 is over 10000 nM.

What about the IC50 (second compound 94.9 pM) of the same compound?
The IC50 was over 10000 nM.

What about the IC50 (second compound 0.0003 µM) of the same compound?
The IC50 was under 31.6 nM.

What about the IC50 (second compound 0.000949 µM) of the same compound?
Its IC50 is under 31.6 nM.

And the IC50 (second compound 0.003 µM)?
The IC50 was under 31.6 nM.

And the viability, T/C (second compound 30 pM, first compound 0.0316 µM)?
The viability, T/C was 103%.

What about the viability, T/C (second compound 30 pM, first compound 0.1 µM) of the same compound?
The viability, T/C was 105%.

And the viability, T/C (second compound 30 pM, first compound 0.316 µM)?
Its viability, T/C is 109%.

And the viability, T/C (second compound 30 pM, first compound 1 µM)?
Its viability, T/C is 104%.

What about the viability, T/C (second compound 30 pM, first compound 3.16 µM) of the same compound?
The viability, T/C was 101%.

And the viability, T/C (second compound 30 pM, first compound 10 µM)?
The viability, T/C was 96.4%.

What about the viability, T/C (second compound 94.9 pM, first compound 0.0316 µM) of the same compound?
Its viability, T/C is 97.6%.

What about the viability, T/C (second compound 94.9 pM, first compound 0.1 µM) of the same compound?
Its viability, T/C is 101%.

What about the viability, T/C (second compound 94.9 pM, first compound 0.316 µM) of the same compound?
Its viability, T/C is 96.8%.

What about the viability, T/C (second compound 94.9 pM, first compound 1 µM) of the same compound?
The viability, T/C was 95.2%.

What about the viability, T/C (second compound 94.9 pM, first compound 3.16 µM) of the same compound?
Its viability, T/C is 88.7%.

What about the viability, T/C (second compound 94.9 pM, first compound 10 µM) of the same compound?
Its viability, T/C is 82.6%.

What about the viability, T/C (second compound 0.0003 µM, first compound 0.0316 µM) of the same compound?
Its viability, T/C is 48.5%.

And the viability, T/C (second compound 0.0003 µM, first compound 0.1 µM)?
Its viability, T/C is 48.4%.

And the viability, T/C (second compound 0.0003 µM, first compound 0.316 µM)?
The viability, T/C was 47.7%.

And the viability, T/C (second compound 0.0003 µM, first compound 1 µM)?
Its viability, T/C is 42.4%.

And the viability, T/C (second compound 0.0003 µM, first compound 3.16 µM)?
Its viability, T/C is 38.6%.

And the viability, T/C (second compound 0.0003 µM, first compound 10 µM)?
The viability, T/C was 32.6%.

And the viability, T/C (second compound 0.000949 µM, first compound 0.0316 µM)?
The viability, T/C was 2.91%.

And the viability, T/C (second compound 0.000949 µM, first compound 0.1 µM)?
Its viability, T/C is 3.27%.

What about the viability, T/C (second compound 0.000949 µM, first compound 0.316 µM) of the same compound?
Its viability, T/C is 3.08%.

And the viability, T/C (second compound 0.000949 µM, first compound 1 µM)?
Its viability, T/C is 2.61%.

What about the viability, T/C (second compound 0.000949 µM, first compound 3.16 µM) of the same compound?
Its viability, T/C is 2.08%.

And the viability, T/C (second compound 0.000949 µM, first compound 10 µM)?
Its viability, T/C is 1.68%.

And the viability, T/C (second compound 0.003 µM, first compound 0.0316 µM)?
The viability, T/C was 0.95%.

What about the viability, T/C (second compound 0.003 µM, first compound 0.1 µM) of the same compound?
The viability, T/C was 1.8%.

What about the viability, T/C (second compound 0.003 µM, first compound 0.316 µM) of the same compound?
Its viability, T/C is 1.23%.

What about the viability, T/C (second compound 0.003 µM, first compound 1 µM) of the same compound?
The viability, T/C was 1.96%.

What about the viability, T/C (second compound 0.003 µM, first compound 3.16 µM) of the same compound?
The viability, T/C was 1.92%.

What about the viability, T/C (second compound 0.003 µM, first compound 10 µM) of the same compound?
Its viability, T/C is 1.57%.
